{"source": "paper PMC8145938", "about": "“Triphenilphosphonium Analogs of Chloramphenicol as Dual-Acting Antimicrobial and Antiproliferating Agents” (Antibiotics, 2021)", "key": {"[1]": {"tested_on": "E. coli S30 extract cell-free transcription-translation system", "assay": "inhibition of firefly luciferase synthesis in cell-free bacterial translation system", "assay_type": "biochemical", "details": "30 µM compound", "experimental": "The next step was to test the new CAM-Cn-TPP compounds for their ability to inhibit the synthesis of the firefly luciferase reporter in vitro in a cell-free transcription-translation system based on an E. coli S30 extract.\nThe inhibition of firefly luciferase synthesis in cell-free translation systems by CAM-Cn-TPP was tested with an E. coli S30 Extract System for Linear Templates (Promega, Madison, […], USA). The reactions were programmed with 100 ng of mRNA and were carried out in 5 μL aliquots at 37 °C for 30 min. The activity of in vitro synthesized luciferase was assessed using 5 μL of the substrate from the Steady-Glo Luciferase Assay System (Promega)."}, "[2]": {"tested_on": "ribosome stalling on trpL mRNA in a cell-free translation system", "assay": "toeprinting (primer extension inhibition) assay on trpL mRNA", "assay_type": "biochemical", "details": "trpL mRNA template, 30 μM compound", "source_text": "To investigate the mechanism of action of CAM-C10-TPP and CAM-C14-TPP in the translation process, a primer extension inhibition assay (toeprinting) was used. This method allows for the unambiguous identification of drug-induced ribosome stalling sites along the mRNA, with single-nucleotide precision. This technique is also used to determine the context-specificity of antibiotic action. For this experiment, trpL mRNAs were chosen as the template, as in the pDualrep2 reporter system. […] Compared to the results obtained previously for CAM-C4-TPP using rst1 and rst2 mRNA templates, more unambiguous results were obtained using a trpL mRNA template. The main drug-induced ribosome stalling sites are different for CHL and CAM-Cn-TPP, and there are also CAM-Cn-TPP-specific stalling positions.\nThe toeprinting assay was carried out using trpL mRNA as a template, as described in [73], and the reactions were preincubated for 5 min with 30 μM of the tested compound."}, "B. subtilis pHT01-cat": {"tested_on": "B. subtilis pHT01-cat", "assay": "MIC determination, broth microdilution", "assay_type": "cell-based", "details": "Bacillus subtilis, PHT01CAT", "experimental": "(§1) E. coli ∆tolC CHL-resistant strain harboring plasmid encoding for chloramphenicol acetyltransferase (cat) (pCA24N-LacZ) and the control E. coli ∆tolC strain was used to evaluate the inhibitory effect of the compounds. CHL-resistant strains of B. subtilis pHT01-cat and B. subtilis pHT01-cfr were prepared by means of a transformation of a B. subtilis 168 strain with plasmids harboring the cat and cfr genes (chloramphenicol-florfenicol resistance) gene. The cfr gene encodes for the methyltransferase, which catalyzes the methylation of […] in the 23S rRNA and causes resistance to a variety of ribosome-targeting antibiotics that bind in the A site of the bacterial ribosome.\n(§2) A standard laboratory strain of B. subtilis 168 was used to obtain the CHL-resistant strains, B. subtilis pHT01-CAT and B. subtilis pHT01-cfr, by means of transformation with the corresponding plasmids. Competent cell preparation and transformation procedures were conducted, as reported in [74, 75]. The desired colonies were selected at 10 µg/mL of CHL for B. subtilis pHT01 and 5 µg/mL or 3.2 µg/mL of CHL for B. subtilis pHT01-cfr.\n(§3) The MICs for CAM-Cn-TPP and Cn-TPP were determined by Mueller-Hinton broth microdilution, as recommended by CLSI in the Methods for Dilution Antimicrobial Susceptibility Tests for Bacteria that Grow Aerobically, Approved Standard, 9th ed., CLSI document M07-A9, using in-house-prepared panels. The compounds were diluted in a 96-well microtiter plate to final concentrations ranging from 0.5 to 360 μM in a 250-µL aliquot of the bacterial suspension, followed by incubation at 37 °C or 30 °C for 18 h. […] The bacterial growth was observed visually alongside OD measurements. The experiments were carried out in triplicate."}, "B. subtilis pHT01-cfr": {"tested_on": "B. subtilis pHT01-cfr", "assay": "MIC determination, broth microdilution", "assay_type": "cell-based", "details": "Bacillus subtilis, PHT01CFR", "experimental": "as §1, §2, §3"}, "A549": {"tested_on": "A549", "assay": "MTT assay growth inhibition", "assay_type": "cell-based, human", "details": "for selectivity of action for A549 and noncancerous VA13 cell lines: A549 vs VA13; for GI50: Homo sapiens, A549, MTT, 72 h, read-out: 50% growth inhibition concentration (GI50)", "experimental": "The cytotoxicity of the tested substances was tested using the MTT (3-(4,5-dimethylthiazol-2-yl)-2,5-diphenyltetrazolium bromide) assay, with some modifications, and 2500 cells per well for the MCF7, HEK293T, and A549 cell lines or 4000 cells per well for the VA-13 cell line were plated in 135 µL of DMEM-F12 media (Gibco, Waltham, MA, USA) in a 96-well plate and incubated in the 5% CO2 incubator for first 16 h, without treatment. Then, 15 µL of media-DMSO solutions of the tested substances was added to the cells (the final DMSO concentrations in the media were 1% or less) and treated cells for 72 h with 25 nM–50 µM (eight dilutions) of our substances (triplicate each), and serial DMSO dilutions and doxorubicin were used as controls. The MTT reagent (Paneco LLC, Moscow, Russia) was then added to cells to a final concentration of 0.5 g/L (10× stock solution in PBS was used) and incubated for 2.5 h at 37 °C in the incubator under an atmosphere of 5% CO2. The MTT solution was then discarded, and 140 µL of DMSO (PharmaMed LLC, Krasnodarsky Krai, Russia) was added. The plates were swayed on a shaker (60 rpm) to dissolve the formazan. The absorbance was measured using a microplate reader (VICTOR X5 Light Plate Reader, PerkinElmer, Waltham, MA, USA) at a wavelength of 565 nm (in order to measure formazan concentration). The results were used to construct a dose-response graph and to estimate the CC50 value."}}, "data": [{"smiles": "O=C(CCCCCCCCCC[P+](c1ccccc1)(c1ccccc1)c1ccccc1)NCCCC(=O)N[C@H](CO)[C@H](O)c1ccc([N+](=O)[O-])cc1", "note": "[CAM-C14-TPP, N-[(1R,2R)-1,3-dihydroxy-1-(4-nitrophenyl)propan-2-yl]-4-(triphenyl)phosphoniumundecanamidobutamide bromide]", "values": [{"measurement": "inhibition of bacterial translation (luciferase synthesis)", "setting": "[1]", "value": "inhibits bacterial translation"}, {"measurement": "drug-induced ribosome stalling site", "setting": "[2]", "value": "blocked the ribosome progression at Val6 (Figure 2D, red arrowhead) and slightly blocked it at Ile4"}, {"measurement": "MIC", "setting": "B. subtilis pHT01-cat", "value": 12.5, "unit": "µM"}, {"measurement": "MIC", "setting": "B. subtilis pHT01-cfr", "value": 6, "unit": "µM"}, {"measurement": "selectivity of action for A549 and noncancerous VA13 cell lines", "setting": "A549", "value": "~2", "unit": "times"}, {"measurement": "GI50", "setting": "A549", "value": "2900 ± 400", "unit": "nM"}]}, {"smiles": "O=C(N[C@H](CO)[C@H](O)c1ccc([N+](=O)[O-])cc1)C(Cl)Cl", "note": "[CHL, chloramphenicol]", "values": [{"measurement": "inhibition of bacterial translation (luciferase synthesis)", "setting": "[1]", "value": "inhibits bacterial translation"}, {"measurement": "drug-induced ribosome stalling site", "setting": "[2]", "value": "stalls ribosomes at the Ile4 codon"}, {"measurement": "MIC", "setting": "B. subtilis pHT01-cat", "value": 180, "unit": "µM"}, {"measurement": "MIC", "setting": "B. subtilis pHT01-cfr", "value": 90, "unit": "µM"}, {"measurement": "GI50", "setting": "A549", "value": "> 50000", "unit": "nM"}]}, {"smiles": "O=C(CCCCCCCCCC[P+](c1ccccc1)(c1ccccc1)c1ccccc1)N[C@H](CO)[C@H](O)c1ccc([N+](=O)[O-])cc1", "note": "[CAM-C10-TPP, (N-{[(1R,2R)-1,3-dihydroxy-1-(4-nitrophenyl)propan-2-yl]amino}-11-oxoundecyl)(triphenyl)phosphonium bromide]", "values": [{"measurement": "inhibition of bacterial translation (luciferase synthesis)", "setting": "[1]", "value": "inhibits bacterial translation"}, {"measurement": "drug-induced ribosome stalling site", "setting": "[2]", "value": "blocked the ribosome progression at Val6 (Figure 2D, red arrowhead) and slightly blocked it at Ile4"}, {"measurement": "MIC", "setting": "B. subtilis pHT01-cat", "value": 6, "unit": "µM"}, {"measurement": "MIC", "setting": "B. subtilis pHT01-cfr", "value": 6, "unit": "µM"}, {"measurement": "selectivity of action for A549 and noncancerous VA13 cell lines", "setting": "A549", "value": "approximately 4 times"}, {"measurement": "GI50", "setting": "A549", "value": "700 ± 100", "unit": "nM"}]}]}
